Measured values as given in patent US12616196B2, “Long protection mosquito repellent ointment” (MAIA AFRICA SAS, priority 2019, dated 2026).

Tests used:
Anopheles gambiae s.l. = test: Field human landing catches on treated lower legs, Goden village (WHO Guidelines 2009); type: in vivo; details: for Median CPT (complete protection time): Kaplan-Meier
Protocol: (§1) The protection time provided by ointment No. 9 of Example 1 has been measured according to the “Guidelines for efficacy testing of mosquito repellents for human skin” published by the World Health Organization in 2009 (noted hereafter “WHO Guidelines, 2009”). These guidelines describe how human landing catches must be performed on volunteers. The effectiveness of ointment No. 9 was evaluated and compared to a 20% ethanol solution of DEET (N, N-Diethyl-3-methylbenzamide), being the positive control, and an ethanol solution being the negative control.
(§2) Briefly, the study was carried out in real conditions at the Goden village (12°25′N, 1°20′W), a rural village in the locality of Gampela, 25 km north-east of Ouagadougou, the capital city of Burkina Faso. Goden is in the Sudanian Savanna with approximately 800 inhabitants mainly belonging to the Mossi ethnic group, mostly devoted to agriculture and rearing few animals such as dogs, pigs and others. Goden is known for its high density of malaria vectors due to its proximity to the Massiri river. This study was carried out during the high malaria transmission period, when the mosquito density was the highest A preliminary assessment of the collection site was carried out by undertaking captures on human volunteers before the tests themselves.
A total of twenty volunteers have been recruited from the Goden village and have been trained for the nocturnal collection of mosquitoes on human bait using mouth aspirator and flash torch known as Human Landing Catches (HCL). The age of the volunteers ranged from 18 to 50 years old. After receiving explanation of the aims, benefits and risks of the study, they signed a written informed consent. The composition of the ointment was not disclosed to the volunteers. Volunteers were instructed not to use any fragranced soap or perfume, tobacco or alcohol 12 hours before the start and throughout the experiments. Before applying treatments, the lower leg of volunteers was washed with neutral soap, rinsed with 70% of ethanol solution and naturally dried. Once their legs treated volunteers were also asked to avoid rubbing, touching or wetting the repellent-treated area.
Three treatments have been carried out in the study: • (i) one negative control (ethanol 100%), • (ii) two treatments of 20% DEET diluted in ethanol 100% of technical quality used as a positive control, since this repellent is considered as the reference, • (iii) two treatments of ointment No. 9.
The products were applied to the bare leg of the volunteers and the areas of application were exposed to mosquito bites in the field. Volunteers applied to their exposed leg: Ointment No. 9 at a dosage of 2 mg/cm^2, and 20% DEET in ethanol for the positive control at a dosage of 1 ml per 600 cm^2.
To establish the amount of repellent required for application in the experiments, the surface area of the leg of each volunteer were determined by first measuring the circumferences expressed in centimeter (cm) just below the knee, and above the ankle, multiplied by the length of the lower leg, measured from the knee to the ankle. The surface area (in cm^2) of skin was calculated according to formula (1) below: Area=½(Ck+Ca)Dka, (1) wherein Ck is the circumference below the knee in cm, Ca is the circumference above the ankle in centimeter, and Dka is the distance in centimeter between Ca and Ck. The amount needed for each volunteer was then determined depending on their leg length. In addition, the quantity of product left in bottles was weighed using a precision weighing balance (KERN & SOHN GmbH) to determine the amount applied by each volunteer. Overall, the average amount applied was 2.4±0.2 g per 1189±79.2 cm^2 and per volunteer's lower leg, leading to 2 mg/cm^2 of Ointment No. 9 and […] of a 20% DEET solution.
Volunteers were divided into five groups of four volunteers. All the members of a group received the same treatment at the same time. […]

Culicine = test: Field human landing catches, Goden village; type: in vivo, Culicine (Aedes); details: total catch during the tests, collection 6 pm to 6 am
Protocol: as §1
as §2, with “themselves. […]” for “themselves.”

Ae. aegypti (Bagamoyo) = test: Semi-field system (SFS) recapture of released mosquitoes on treated lower limbs; type: in vivo, Aedes aegypti
Protocol: (§3) The study was conducted under ambient condition in the semi-field system (SFS) located in Bagamoyo district at the Ifakara Health Institute at Bagamoyo branch in Tanzania. Bagamoyo is located on the coast region of the Indian Ocean between latitudes 6° and 8′ South and between longitudes 30° and 37′ East. The district experience annual rainfall ranging between 800 mm and 1000 mm, temperature ranging between 22° C. and 33° C., and mean relative humidity of 73%.
(§4) Three laboratory-reared mosquito strains, aged 6 days old, sugar starved for 8 hours, nulliparous females, reactive to human odor on the day of the experiment, have been used for this experiment. Mosquito strains used were: (i) the pyrethroid insecticide resistant (20% mortality) An. arabiensis (Kingani, (ii) fully pyrethroid susceptible An. gambiae s.s. (Kisumu) and (iii) Ae. aegypti (Bagamoyo). The vector control product-testing unit of IHI supplied all mosquitoes used in the experiments.
The mosquitoes were reared in the insectary following MR4 guideline (MR4. Methods in Anopheles Research 2016; 2015 Edition). Adults were kept inside cages measuring 30 cm×30 cm×30 cm. Only hyperactive mosquitoes were selected at least 8 hours before the experiment. […] About 30 minutes before the experiment, mosquitoes were transferred to the SFS to acclimatize the environmental conditions. […]
(§5) Volunteers wore shorts, closed shoes and bug jacket to ensure mosquitoes had access to the lower limbs only. […] After application, an empty plastic cups were weighed to determine the quantity of repellent left in the cup. […]
(§6) During the last 9 days, we used same volunteers, compartments and rotation schedule. […] Volunteers recorded a time the first mosquito of each species landed on the limb and the recaptured mosquito was placed in a paper cup labelled with volunteers unique identification code, time of collection, position and treatment code. […]

mosquitoes = test: Field human landing catches, hourly mosquito biting rate; type: in vivo; details: with 95% CI
Protocol: as §1
as §2, with “themselves. […]” for “themselves.”

[1] = test system: An. gambiae s.s. (Kisumu); test: Semi-field system (SFS) recapture of released mosquitoes on treated lower limbs; type: in vivo
Protocol: as §3, §4
(§7) The mosquitoes were reared in the insectary following MR4 guideline (MR4. Methods in Anopheles Research 2016; 2015 Edition). Adults were kept inside cages measuring 30 cm×30 cm×30 cm. Only hyperactive mosquitoes were selected at least 8 hours before the experiment. […] About 30 minutes before the experiment, mosquitoes were transferred to the SFS to acclimatize the environmental conditions. The SFS offered the following advantages; 1) volunteers were exposed to laboratory-reared mosquitoes only, 2) experiments were run using a known number of mosquitoes throughout the experiments; 3) mosquitoes used were of known age (6 days), physiological status and avidity. These features improve data quality and less results variability between days and volunteers.
(§8) Three treatments have been tested: (i) Ethanol 100% as a negative control, (ii) 20% DEET diluted in ethanol 100% as a positive control, and (iii) ointment No. 9.
(§9) Volunteers wore shorts, closed shoes and bug jacket to ensure mosquitoes had access to the lower limbs only. Volunteers applied 20% DEET and ointment No. 9 at an average rate of 2 mg/cm^2 of the repellent to the lower limbs using latex glove to minimize absorption onto volunteer's hand. After application, an empty plastic cups were weighed to determine the quantity of repellent left in the cup. The composition of the ointment was not disclosed to the volunteers.
(§10) The study was divided into two experiments: one for Anopheles mosquitoes conducted in the late evening and the other for Ae. aegypti mosquitoes conducted early in the morning. The experiment for Anopheles started at 17:55 and that for Ae. aegypti at 06:00 hours.
(§11) The experiments were conducted for a total of 18 days. During the first 9 days 100 mosquitoes (50 per species) were released in each compartment starting at 18:00 hours for Anopheles species and at 06:00 hours for Ae. aegypti. After the release, the number of mosquitoes recaptured by volunteers who applied 20% DEET and ointment No. 9 was insignificant up to 6 hours of recapture period. This warranted to extend the recapture period to 12 hours 9 last days.
(§12) During the last 9 days, we used same volunteers, compartments and rotation schedule. Mosquitoes released were 100 per species and volunteers recaptured mosquitoes landing on their lower limbs using a mouth aspirator up to 12 hours of recapture period. Volunteers recorded a time the first mosquito of each species landed on the limb and the recaptured mosquito was placed in a paper cup labelled with volunteers unique identification code, time of collection, position and treatment code. The volunteer kept collecting subsequent mosquitoes up to 12 hours with cups changed after every hour.
(§13) At the end of recapture time, mosquitoes were killed by putting in the refrigerator for about 30 minutes and then sorted to species level. If the mosquito recaptured in the control was below 50 percent, the experiment was considered invalid, data discarded and the experiment repeated. […]

An. arabiensis (Kingani) = test: as above; type: in vivo
Protocol: as §3, §4, §7, §8, §9, §10, §11, §12, §13

[2] = test system: An. arabiensis (Kingani), An. gambiae s.s. (Kisumu), Ae. aegypti (Bagamoyo); test: Semi-field system (SFS), all species tested; type: in vivo, Anopheles and Aedes mosquitoes
Protocol: as §3
Three laboratory-reared mosquito strains, aged 6 days old, sugar starved for 8 hours, nulliparous females, reactive to human odor on the day of the experiment, have been used for this experiment. […]
as §5, §6

Other Anopheles = test: Field human landing catches, Goden village; type: in vivo; details: total catch during the tests, collection 6 pm to 6 am
Protocol: as §1
as §2, with “themselves. […]” for “themselves.”

Anopheles funestus = test: Field human landing catches, Goden village; type: in vivo; details: total catch during the tests, collection 6 pm to 6 am
Protocol: as §1
as §2, with “themselves. […]” for “themselves.”

## CCN(CC)C(=O)c1cccc(C)c1 [20% DEET, N,N-diethyl-3-méthylbenzamide]
Anopheles gambiae s.l.; after 3 h (10 hours after application)
  percentage of repellency: under 80%
Anopheles gambiae s.l.; indoor and outdoor together
  Median CPT (complete protection time): 480 min
Anopheles gambiae s.l.; indoor
  Median CPT (complete protection time): 480 min
Anopheles gambiae s.l.; outdoor
  Median CPT (complete protection time): 480 min
Anopheles gambiae s.l.; total catch during the tests, collection 6 pm to 6 am
  mosquitoes caught by treatment: 686
Anopheles gambiae s.l.; versus negative control Ethanol
  increase of protection time compared to Ethanol: four-fold
Culicine
  mosquitoes caught by treatment: 7
Ae. aegypti (Bagamoyo); 12-hour recapture time
  Percentage protection (protective efficacy): 93.1%
  Percentage recapture: 4.8%
Ae. aegypti (Bagamoyo); up to 12 hours recapture
  Average CRT (average complete protection time, CPT): 436.9 min
mosquitoes
  average mosquito bites received per person per hour: 1.01 (95%: 0.76-1.33) per person per hour
[1]; 12-hour recapture time
  Percentage protection (protective efficacy): 96.8%
  Percentage recapture: 2.5%
[1]; up to 12 hours recapture
  Average CRT (average complete protection time, CPT): 575 min
An. arabiensis (Kingani); 12-hour recapture time
  Percentage protection (protective efficacy): 97.2%
  Percentage recapture: 2.7%
An. arabiensis (Kingani); up to 12 hours recapture
  Average CRT (average complete protection time, CPT): 580.9 min
[2]; 6-hour recapture time, all species tested
  protective efficacy: 100%
[2]; up to 6 hours of recapture period
  number of mosquitoes recaptured: insignificant
Other Anopheles
  mosquitoes caught by treatment: 1
Anopheles funestus
  mosquitoes caught by treatment: 1
